Source: PMC11429909, “Protein Structure Inspired Discovery of a Novel Inducer of Anoikis in Human Melanoma” (Cancers, 2024)

Legend:
[1] = test system: breast, prostate, colon, or lung cancer cell lines; test: Eight-day colony formation assays, summary across the cancer cell line panel; format: cell-based, human; conditions: 8 days
Procedure: Initial colony formation screening assays were conducted on all acquired compounds and examined at five different compound concentrations. Those meeting efficacy criteria underwent a second-level screen examining nine different compound concentrations. Eight-day colony formation assays of cancer cells were performed as described by us. Briefly, 0.5–1.0 × 10^3 cells were seeded into each well of a 12-well plate. Twenty-four hours later, the compound was added at the following final concentrations: 0 (DMSO-only control), 0.017, 0.12, 0.82, 5.7, and 40 µM. For each concentration, there were N = 2 replicates, i.e., 2 wells. Eight days later, plates were stained with trypan blue, visualized under light microscopy, and groups of three or more cells were scored as colonies. The mean number of colonies was then determined and expressed as the percentage of controls. Second-level screens were performed on compounds inhibiting colony formation by greater than 50% at 40 µM in at least two cell lines. Second-level assays used the following final concentrations of compound: 0 (DMSO only), 0.0061, 0.018, 0.05, 0.16, 0.49, 1.48, 4.44, 13.33, and 40 µM. All compounds were stored under desiccated conditions in a sealed container at minus 20 °C upon arrival. One day prior to use, they were dissolved in DMSO, stored at minus 20 °C as stock solutions, thawed just prior to use, and not reused.
Human hematopoietic stem cell trilineage colony formation assays were performed as previously described by us. Briefly, human cord blood CD34+ cells (catalog #: 70008.5) were purchased from StemCell Technology Inc. and seeded at 1 × 10^4 cells per 35 mm dish. Cells were cultured in MethoCult™ Express (StemCell Technologies, Inc. (Vancouver, BC, Canada)) semisolid media, per the manufacturer’s instructions, in the presence of compound or vehicle (for controls). Compounds were added at final concentrations matching those used in the initial growth assay screens. At eight days, colonies (i.e., groups of ≥10 cells) were counted. At fourteen days, individual colonies of erythroid burst-forming units (BFU-E), colony-forming unit granulocyte–macrophage (CFU-GM), and colony-forming unit granulocyte, erythrocyte, monocyte, and megakaryocyte (CFU-GEMM) were identified based on the manufacturers’ morphologic characterization criteria. Assays were run in replicates of N = 2, and some were run in replicates of N = 4, as denoted. The mean number of colonies was then determined and expressed as the percentage of controls. The effect of each compound on inhibiting the growth of cancer cells relative to its toxic effects on normal bone marrow was evaluated. This was carried out by comparing colonies at 8 days for each cancer cell line to that of bone marrow. This information was used to calculate the efficacy ratio, as follows: efficacy ratio = (percent of remaining cancer cell colonies)/(percent of remaining bone marrow colonies). This was performed for all compounds at 40 µM and for selected compounds at 5.7 µM, as denoted. For compounds nominated for second-level screens, bone marrow colony formation assays were also repeated. Compounds were added at final concentrations matching those used in the initial screens.
We sought to identify compounds that would inhibit the growth of cancer cells, but that also did so selectively. Inhibition of cancer cell growth is a highly sought after attribute of anticancer agents. This was assessed by measuring the ability of a compound to inhibit cell growth in eight-day colony formation assays and examining concentrations ranging from 0.017 to 40 µM. Breast, colon, lung, and prostate cancer are four of the most common types of cancer in the United States, are major causes of cancer cell death, and were examined. […]

M14 cells = test: Adherent versus floating cell quantification from images, M14; format: cell-based, human; conditions: 10 µM, 3-day treatment, mean ± SEM (N = 4), controls 16.3 ± 2.8%
Procedure: After treatment of M14 and SK-MEL-5 cells with different concentrations of Dxr2-017 or vehicle for 3 or 8 days, as denoted, cell images were captured at 20X in a transmitted light channel using the EVOS™ M5000 Imaging System (Invitrogen (Waltham, MA, USA)). Western blots were performed as previously described by us. Briefly, cells were collected and lysed using RIPA lysis buffer (25 mM Tris-HCl pH 7.6, 150 mM NaCl, 1% NP-40, 1% sodium deoxycholate, and 0.1% SDS; Thermo Scientific^TM (Waltham, MA, USA), #89900), supplemented with protease and phosphatase inhibitor cocktail (Thermo Scientific^TM, #78442) and 1 mM of PMSF. […]
Figure 8 Dxr2-017 inhibits melanoma cell growth through induction of anoikis. […] Data are expressed as the percent of untreated control and are the mean ± SEM of three separate experiments. […] M14 and SK-MEL-5 cells were treated for eight days with 20 nM and 50 nM of Dxr2-017, respectively, and the phase of the cell cycle was determined by flow cytometry. […] (D) Adherent and floating cells were quantified from captured images. Data are the mean ± SEM (N = 4), expressed as a percentage to total cells. * Denotes p-value ≤ 0.05 compared to respective floating or attached cells. […]
We then assessed whether Dxr2-017 induced apoptosis. […]

Compound: c1ccc2sc(-c3ccc(CNc4ccc5nnnn5n4)o3)nc2c1 [Dxr2-017]
- efficacy ratio, mean ± SEM over cell lines with ratio below 0.5 ([1]; 5.7 µM): 0.25 ± 0.091
- efficacy ratio, mean ± SEM over cell lines with ratio below 0.5 ([1]; 40 µM): 0.03 ± 0.01
- floating cell population, percentage to total cells (M14 cells): 79.9 ± 7.4%
